{"source": "patent US5744487A", "about": "“Prolineamide derivatives” (Mitsubishi Chemical Corporation, priority 1994, dated 1998)", "key": {"[1]": {"conditions": "J. Med. Chem., 33, 1729 (1990); cited from earlier work"}, "[2]": {"molecular_target": "T1, bovine thrombin (Bos taurus, UniProt P00735)", "T1 construct": "purchased Mochida Co., Ltd", "test": "Antithrombin activity: coagulation inhibition of rat plasma", "assay_type": "biochemical", "protocol": "(ii) The measuring method for coagulation inhibition of rat plasma The compound of the present invention is dissolved in water or saline to form a solution of a total volume of 0.1 ml. To the solution, 0.1 ml of rat plasma is added and the mixture is incubated at 37° C. for 30 seconds. Then, 0.1 ml of bovine thrombin (8 units/ml, Mochida Co., Ltd.) is added and the coagulation time is measured at 37° C. The concentration of the inhibitor (i.e., the compound of the present invention) which doubles the coagulation time that obtained in the absence of the inhibitor was determined as I50 (μm)."}, "[3]": {"molecular_target": "T2, bovine trypsin (Bos taurus, UniProt P00760)", "T2 construct": "purchased Sigma Co", "T2 sequence (P00760 24-246)": "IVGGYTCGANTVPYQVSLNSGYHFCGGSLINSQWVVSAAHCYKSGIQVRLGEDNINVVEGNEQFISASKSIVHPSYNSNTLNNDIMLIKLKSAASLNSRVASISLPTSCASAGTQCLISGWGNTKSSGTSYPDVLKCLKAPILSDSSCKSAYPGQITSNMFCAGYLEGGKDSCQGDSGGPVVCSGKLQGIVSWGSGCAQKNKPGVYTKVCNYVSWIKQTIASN", "test": "Antitrypsin activity: hydrolysis inhibition of synthetic substrate (S-2222)", "assay_type": "biochemical", "conditions": "S-2222 substrate, pH 8.3, 37° C., absorbance 405 nm, read-out: Antitrypsin activity I50", "protocol": "Determination of Antitrypsin activity\n(i) The measuring method for hydrolysis inhibition of synthetic substrate (S-2222)\nS-2222 (manufactured by Kabi Co.) is dissolved in a Tris hydrochloric acid (pH: 8.3) to prepare a S-2222-0.4M Tris hydrochloric acid solution having a concentration of 400 μm. To the solution (175 μl), 515 μl of a solution of a compound of the present invention is added. After incubating at 37° C. for one minute, 10 μl of a bovine trypsin solution (1 to 2 mg/ml, manufactured by Sigma Co.) is added. A hydrolysis reaction rate of the substrate is determined by measuring a change in absorbance of 405 nm at 37° C."}, "[4]": {"molecular_target": "T1, bovine thrombin", "test": "Antithrombin activity: hydrolysis inhibition of synthetic substrate (S-2238)", "assay_type": "biochemical", "protocol": "Determination of antithrombin activity\n(i) The measuring method for hydrolysis inhibition of synthetic substrate (S-2238)\nS-2238 (manufactured by Kabi Co.) is dissolved in a Tris hydrochloric acid buffer solution (pH: 8.3) to prepare a S-2238-0.4M Tris hydrochloric acid solution having a concentration of 80 μm. To 175 μl of the solution, an aqueous solution of a compound of the present invention (515 μl) is added. After incubating at 37° C. for one minute, 10 μl of a bovine thrombin solution (4.4 units/ml, manufactured by Mochida Co., Ltd.) is added. A hydrolysis reaction rate of the substrate is determined by measuring a change in absorbance of 405 nm at 37° C."}}, "data": [{"compound": "N=C(N)NCCC[C@@H](C=O)NC(=O)[C@@H]1CCCN1C(=O)[C@H](N)Cc1ccccc1", "note": "[D-phenylalanyl-L-prolyl-L-arginal]", "values": [{"measurement": "stability in the living body", "setting": "[1]", "value": "fairly unstable"}]}, {"compound": "CS(=O)(=O)N[C@@H](C(=O)N1CCC[C@H]1C(=O)NCc1ccc(C(=N)N)cc1)C1CCCCC1", "note": "[compound 1]", "values": [{"measurement": "IC50", "setting": "[2]", "value": 46, "unit": "nM"}]}, {"compound": "CC(C)(C)C[C@@H](NS(C)(=O)=O)C(=O)N1CCC[C@H]1C(=O)NCc1ccc(C(=N)N)cc1", "note": "[compound 2]", "values": [{"measurement": "IC50", "setting": "[2]", "value": 30, "unit": "nM"}]}, {"compound": "CS(=O)(=O)N[C@H](Cc1ccccc1)C(=O)N1CCC[C@H]1C(=O)NCc1ccc(C(=N)N)cc1", "note": "[compound 4]", "values": [{"measurement": "IC50", "setting": "[2]", "value": 21, "unit": "nM"}, {"measurement": "IC50", "setting": "[3]", "value": 40, "unit": "nM"}, {"measurement": "IC50", "setting": "[4]", "value": 7.6, "unit": "nM"}]}, {"compound": "CSCC[C@@H](NS(C)(=O)=O)C(=O)N1CCC[C@H]1C(=O)NCc1ccc(C(=N)N)cc1", "note": "[compound 5]", "values": [{"measurement": "IC50", "setting": "[2]", "value": 48, "unit": "nM"}]}, {"compound": "N=C(N)c1ccc(CNC(=O)[C@@H]2CCCN2C(=O)[C@@H](Cc2ccccc2)NC=O)cc1", "note": "[compound 6]", "values": [{"measurement": "IC50", "setting": "[2]", "value": 56, "unit": "nM"}]}, {"compound": "CCCC[C@@H](NS(C)(=O)=O)C(=O)N1CCC[C@H]1C(=O)NCc1ccc(C(=N)N)cc1", "note": "[compound 7]", "values": [{"measurement": "IC50", "setting": "[2]", "value": 30, "unit": "nM"}]}, {"compound": "COC(=O)c1ccc(CC[C@@H](NS(C)(=O)=O)C(=O)N2CCC[C@H]2C(=O)NCc2ccc(C(=N)N)cc2)cc1", "note": "[compound 8]", "values": [{"measurement": "IC50", "setting": "[2]", "value": 122, "unit": "nM"}]}, {"compound": "CS(=O)(=O)N[C@H](COc1cccc(C(=O)O)c1)C(=O)N1CCC[C@H]1C(=O)NCc1ccc(C(=N)N)cc1", "note": "[compound 9]", "values": [{"measurement": "IC50", "setting": "[2]", "value": 110, "unit": "nM"}]}, {"compound": "CS(=O)(=O)N[C@H](COc1ccccc1C(=O)OCc1ccccc1)C(=O)N1CCC[C@H]1C(=O)NCc1ccc(C(=N)N)cc1", "note": "[compound 10]", "values": [{"measurement": "IC50", "setting": "[2]", "value": 170, "unit": "nM"}]}, {"compound": "CCCCC[C@@H](NS(=O)(=O)CC(=O)O)C(=O)N1CCC[C@H]1C(=O)NCc1ccc(C(=N)N)cc1", "note": "[compound 12]", "values": [{"measurement": "IC50", "setting": "[2]", "value": 83, "unit": "nM"}]}, {"compound": "N=C(N)c1ccc(CNC(=O)[C@@H]2CCCN2C(=O)CCCc2ccccc2)cc1", "note": "[compound 13]", "values": [{"measurement": "IC50", "setting": "[2]", "value": 590, "unit": "nM"}, {"measurement": "IC50", "setting": "[4]", "value": 720, "unit": "nM"}]}, {"compound": "CCOC(=O)N[C@H](CC(C)(C)C)C(=O)N1CCC[C@H]1C(=O)NC[C@H]1CC[C@H](C(=N)N)CC1", "note": "[compound 15]", "values": [{"measurement": "IC50", "setting": "[2]", "value": 38, "unit": "nM"}, {"measurement": "IC50", "setting": "[3]", "value": 2200, "unit": "nM"}, {"measurement": "IC50", "setting": "[4]", "value": 11, "unit": "nM"}]}, {"compound": "CCOC(=O)N[C@H](CC1CCCCC1)C(=O)N1CCC[C@H]1C(=O)NC[C@H]1CC[C@H](C(=N)N)CC1", "note": "[compound 16]", "values": [{"measurement": "IC50", "setting": "[3]", "value": 1700, "unit": "nM"}, {"measurement": "IC50", "setting": "[4]", "value": 21, "unit": "nM"}]}, {"compound": "CC(C)OC(=O)N[C@H](CC(C)(C)C)C(=O)N1CCC[C@H]1C(=O)NC[C@H]1CC[C@H](C(=N)N)CC1", "note": "[compound 17]", "values": [{"measurement": "IC50", "setting": "[2]", "value": 53, "unit": "nM"}, {"measurement": "IC50", "setting": "[3]", "value": 3200, "unit": "nM"}, {"measurement": "IC50", "setting": "[4]", "value": 15, "unit": "nM"}]}, {"compound": "CC(C)C[C@@H](NS(C)(=O)=O)C(=O)N1CCC[C@H]1C(=O)NC[C@H]1CC[C@H](C(=N)N)CC1", "note": "[compound 19]", "values": [{"measurement": "IC50", "setting": "[2]", "value": 31, "unit": "nM"}]}, {"compound": "CS(=O)(=O)N[C@H](CC1CCCCC1)C(=O)N1CCC[C@H]1C(=O)NC[C@H]1CC[C@H](C(=N)N)CC1", "note": "[compound 20]", "values": [{"measurement": "IC50", "setting": "[2]", "value": 28, "unit": "nM"}]}, {"compound": "CC(C)OC(=O)N[C@@H](C(=O)N1CCC[C@H]1C(=O)NC[C@H]1CC[C@H](C(=N)N)CC1)C1CCCCC1", "note": "[compound 21]", "values": [{"measurement": "IC50", "setting": "[3]", "value": 1000, "unit": "nM"}, {"measurement": "IC50", "setting": "[4]", "value": 21, "unit": "nM"}]}, {"compound": "CCOC(=O)N[C@H](CC(CC)CC)C(=O)N1CCC[C@H]1C(=O)NC[C@H]1CC[C@H](C(=N)N)CC1", "note": "[compound 22]", "values": [{"measurement": "IC50", "setting": "[3]", "value": 940, "unit": "nM"}, {"measurement": "IC50", "setting": "[4]", "value": 14, "unit": "nM"}]}, {"compound": "CC(C)(C)C[C@@H](NC(=O)OC(C)(C)C)C(=O)N1CCC[C@H]1C(=O)NC[C@H]1CC[C@H](C(=N)N)CC1", "note": "[compound 23]", "values": [{"measurement": "IC50", "setting": "[2]", "value": 58, "unit": "nM"}, {"measurement": "IC50", "setting": "[3]", "value": 3600, "unit": "nM"}, {"measurement": "IC50", "setting": "[4]", "value": 17, "unit": "nM"}]}, {"compound": "NC(=NO)c1ccc(CNC(=O)[C@@H]2CCCN2C(=O)Cc2ccccc2)cc1", "note": "[compound 25]", "values": [{"measurement": "IC50", "setting": "[2]", "value": "> 300000", "unit": "nM"}]}, {"compound": "CS(=O)(=O)N[C@H](Cc1ccccc1)C(=O)N1CCC[C@H]1C(=O)NC[C@H]1CC[C@H](N)CC1", "note": "[compound 52]", "values": [{"measurement": "IC50", "setting": "[2]", "value": 45, "unit": "nM"}, {"measurement": "IC50", "setting": "[3]", "value": 14000, "unit": "nM"}, {"measurement": "IC50", "setting": "[4]", "value": 130, "unit": "nM"}]}, {"compound": "CS(=O)(=O)N[C@@H](C(=O)N1CCC[C@H]1C(=O)NC[C@H]1CC[C@H](N)CC1)C1CCCCC1", "note": "[compound 53]", "values": [{"measurement": "IC50", "setting": "[2]", "value": 59, "unit": "nM"}, {"measurement": "IC50", "setting": "[3]", "value": 1400, "unit": "nM"}, {"measurement": "IC50", "setting": "[4]", "value": 81, "unit": "nM"}]}, {"compound": "N[C@H]1CC[C@H](CNC(=O)[C@@H]2CCCN2C(=O)[C@H](CCC(=O)O)NS(=O)(=O)c2ccccc2)CC1", "note": "[compound 54]", "values": [{"measurement": "IC50", "setting": "[2]", "value": 230, "unit": "nM"}]}, {"compound": "CC(C)OC(=O)N[C@H](CC(C)(C)C)C(=O)N1CCC[C@H]1C(=O)NC[C@H]1CC[C@H](N)CC1", "note": "[compound 56]", "values": [{"measurement": "IC50", "setting": "[2]", "value": 80, "unit": "nM"}, {"measurement": "IC50", "setting": "[3]", "value": 14000, "unit": "nM"}, {"measurement": "IC50", "setting": "[4]", "value": 130, "unit": "nM"}]}, {"compound": "CCOC(=O)N[C@H](Cc1ccccc1)C(=O)N1CCC[C@H]1C(=O)NC[C@H]1CC[C@H](N)CC1", "note": "[compound 57]", "values": [{"measurement": "IC50", "setting": "[2]", "value": 82, "unit": "nM"}]}, {"compound": "N[C@H](Cc1ccccc1)C(=O)N1CCC[C@H]1C(=O)NC[C@H]1CC[C@H](N)CC1", "note": "[compound 58]", "values": [{"measurement": "IC50", "setting": "[2]", "value": 97, "unit": "nM"}]}, {"compound": "N[C@H]1CC[C@H](CNC(=O)[C@@H]2CCCN2C(=O)[C@H](O)C2CCCCC2)CC1", "note": "[compound 61]", "values": [{"measurement": "IC50", "setting": "[2]", "value": 56, "unit": "nM"}]}, {"compound": "N[C@H]1CC[C@H](CNC(=O)[C@@H]2CCCN2C(=O)[C@H](O)c2ccccc2)CC1", "note": "[compound 62]", "values": [{"measurement": "IC50", "setting": "[2]", "value": 88, "unit": "nM"}]}, {"compound": "CCOC(=O)N[C@H](CC(C)(C)C)C(=O)N1CCC[C@H]1C(=O)NC[C@H]1CC[C@H](N)CC1", "note": "[compound 64]", "values": [{"measurement": "IC50", "setting": "[2]", "value": 130, "unit": "nM"}]}, {"compound": "CS(=O)(=O)N[C@H](Cc1ccccc1)C(=O)N1CCC[C@H]1C(=O)NC[C@H]1CC[C@H](NC(=N)N)CC1", "note": "[compound 67]", "values": [{"measurement": "IC50", "setting": "[2]", "value": 81, "unit": "nM"}, {"measurement": "IC50", "setting": "[3]", "value": 20000, "unit": "nM"}, {"measurement": "IC50", "setting": "[4]", "value": 560, "unit": "nM"}]}]}
